Among the data in ChEMBL document CHEMBL3091426, “Synthesis and antitumor-evaluation of 1,3-selenazole-containing 1,3,4-thiadiazole derivatives” (Bioorg Med Chem Lett, 2013) are IC50 values, retold here.

What is called IC50 is the midpoint of a concentration-inhibition curve. Higher therefore signals a need for much substance.

One assay deals with L1210. Kind of assay: Antiproliferative activity against mouse L1210 cells by CCK-8 assay. The class given is functional, cell-based. For orientation: Tetrazolium dyes change colour on reduction, which living cells bring about.
For another assay, the system named is MCF7. Kind of assay: Antiproliferative activity against human MCF7 cells by CCK-8 assay. The assay is classed as functional, cell-based.

Take `Oc1ccc(/C=N/c2nnc(SCc3c[se]c(-c4ccccc4)n3)s2)cc1`: the IC50 with L1210 was more than 100 µM; with MCF7 it was 31.1 µM.

`O=[N+]([O-])c1ccc(/C=N/c2nnc(SCc3c[se]c(-c4ccccc4)n3)s2)cc1`: the results for the IC50 in the assay with L1210 and in the assay on MCF7 were more than 100 µM and 49.1 µM, respectively.

Take `O=C(O)c1c[se]c(-c2ccccc2)n1`: the figures for the IC50 with L1210 and with MCF7 were 60.1 µM and 16.6 µM, respectively.

Turning to `COc1cc(/C=N/c2nnc(SCc3c[se]c(-c4ccccc4)n3)s2)ccc1O`, the results for the IC50 with L1210 and in the assay on MCF7 were more than 100 µM and 15 µM, respectively.

For `Clc1ccc(/C=N/c2nnc(SCc3c[se]c(-c4ccccc4)n3)s2)cc1`, the IC50 in the assay on L1210 stood at 50 µM; in the assay on MCF7 it was 4.02 µM.

As for `Fc1ccc(/C=N/c2nnc(SCc3c[se]c(-c4ccccc4)n3)s2)cc1`, the IC50 in the assay with L1210 stood at 56.9 µM; in the assay with MCF7, 10.2 µM.

For `Cc1ccc(/C=N/c2nnc(SCc3c[se]c(-c4ccccc4)n3)s2)cc1`, the IC50 in the assay with L1210 came to 58.6 µM; with MCF7 it was 7.55 µM.

`C(=N\c1nnc(SCc2c[se]c(-c3ccccc3)n2)s1)/c1ccccc1`: the IC50 in the assay with L1210 was 46.5 µM; with MCF7, 25.6 µM.

Regarding `Oc1ccccc1/C=N/c1nnc(SCc2c[se]c(-c3ccccc3)n2)s1`, the results for the IC50 in the assay on L1210 and in the assay on MCF7 were 38.7 µM and 15.2 µM, respectively.

As to `Oc1ccc(/C=N/c2nnc(SCc3c[se]c(-c4ccccc4)n3)s2)c(O)c1`, the IC50 was found to be 62.2 µM in the assay with L1210 and 8.51 µM with MCF7.

Take `Brc1ccc(/C=N/c2nnc(SCc3c[se]c(-c4ccccc4)n3)s2)cc1`: the figures for the IC50 with L1210 and in the assay on MCF7 were 46.5 µM and 14.8 µM, respectively.

`CN(C)c1ccc(/C=N/c2nnc(SCc3c[se]c(-c4ccccc4)n3)s2)cc1`: the IC50 with L1210 was more than 100 µM; with MCF7, 80.3 µM.
